Laboratory results from ChEMBL document CHEMBL1145707, “Methyl 4-hydroxy-3-(3'-methyl-2'-butenyl)benzoate, major insecticidal principle from Piper guanacastensis” (1997).
Converted amounts (≈) assume the structure as drawn.

System: Aedes atropalpus
Assay: Insecticidal activity against Aedes atropalpus second-instar larvae after 24 hrs
Assay type: functional

SMILES: COC(=O)c1ccc(O)c(CC=C(C)C)c1
- LC50: 20.5 µg/mL (≈ 93.1 µM)

SMILES: CCOC(=O)c1ccc(O)c(CC=C(C)C)c1
- LC50: 25.7 µg/mL (≈ 110 µM)
